Test results: article PMC12851022, “Targeting the Spliceosomal Protein USP39 Through Allosteric Ligands and PROTAC‐Induced Degradation” (Angewandte Chemie (International Ed. in English), 2025)

Key:
USP39_T2 [1] = target: T1, USP39_T2 (Homo sapiens, UniProt Q53GS9); test: Competitive FP assay, tracer USP39_B1-FITC; assay type: binding; settings: for Binding in competitive FP screening normalized to USP39_B1: 5 µM compound concentration; for IC50: tracer USP39_B1-FITC, protein USP39_T2
T1 construct: USP39_T2 (ZNF domain only); made in house
T1 sequence (Q53GS9 103-200 limits assumed): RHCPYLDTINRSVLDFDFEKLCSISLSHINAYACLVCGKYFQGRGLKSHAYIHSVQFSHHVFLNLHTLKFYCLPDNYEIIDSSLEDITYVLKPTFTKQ
Text: The compound label is taken from plot legend entries such as 'WT_USP39_B1'. / Panel e: the picture prints no compound label. WT, M1 and M2 are protein variants (targets), not substances.
To systematically investigate structure–activity relationships, we synthesized a series of derivatives by modifying the phenyl ring, either by substituting the chlorine atom with other halogens or varying the substitution pattern (Figure SI2B).
Figure 3 Design and in vitro characterization of USP39‐targeting PROTACs. a) Synthetic strategy for PROTAC synthesis. […] USP39_B1‐FITC served as the tracer, while USP39_T2 acted as the protein. The results were obtained from two independent experiments, each performed in triplicates and are presented as mean ± SD. e) Predicted results from AI‐Based DMPK analysis. MW: Molecular weight; HBA: H‐Bond acceptors; HBD: H‐Bond donors; Con_LogP: Consensus LogP; RotB: Rotatable Bonds; TPSA: Topological polar surface area; ESOL_LogS: predicted aqueous solubility (Log10 mol L^−1); GI: Gastrointestinal absorption; BBB: Blood–brain barrier. A comprehensive overview of all PROTACs and related data is available in Table SI5 of the Supporting Information.

[2] = target: His-tagged USP39 and GST-tagged VHL (Homo sapiens, UniProt P40337+Q53GS9); test: Alpha assay of ternary complex formation; assay type: binding
His-tagged USP39 and GST-tagged VHL, sequence (Q53GS9 whole entry): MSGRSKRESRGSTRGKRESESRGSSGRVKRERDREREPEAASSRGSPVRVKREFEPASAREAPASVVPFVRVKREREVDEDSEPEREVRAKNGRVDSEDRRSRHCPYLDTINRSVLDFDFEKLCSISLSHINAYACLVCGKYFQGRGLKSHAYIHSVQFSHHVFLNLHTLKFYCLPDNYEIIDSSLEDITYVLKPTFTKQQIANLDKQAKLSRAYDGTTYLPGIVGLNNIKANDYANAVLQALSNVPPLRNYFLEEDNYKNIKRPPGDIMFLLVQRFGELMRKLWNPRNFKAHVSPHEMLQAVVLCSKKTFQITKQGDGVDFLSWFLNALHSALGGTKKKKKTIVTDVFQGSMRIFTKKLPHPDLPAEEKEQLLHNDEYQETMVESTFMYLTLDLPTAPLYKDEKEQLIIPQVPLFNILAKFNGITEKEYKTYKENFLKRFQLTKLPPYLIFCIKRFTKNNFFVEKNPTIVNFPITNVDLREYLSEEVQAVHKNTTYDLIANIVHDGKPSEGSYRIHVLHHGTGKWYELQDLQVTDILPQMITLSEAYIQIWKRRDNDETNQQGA
His-tagged USP39 and GST-tagged VHL, sequence (P40337 whole entry): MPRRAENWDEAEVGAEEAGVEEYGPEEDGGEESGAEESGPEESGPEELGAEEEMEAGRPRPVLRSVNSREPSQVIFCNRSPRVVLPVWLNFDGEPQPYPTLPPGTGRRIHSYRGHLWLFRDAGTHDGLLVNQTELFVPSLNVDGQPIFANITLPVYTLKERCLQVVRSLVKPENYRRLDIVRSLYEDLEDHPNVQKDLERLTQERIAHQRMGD

USP39_T2 [3] = target: T1, USP39_T2; test: Isothermal titration calorimetry (ITC); assay type: binding
FKBP12^F36V-USP39 [4] = target: T2, FKBP12^F36V-USP39 (Homo sapiens, UniProt P62942+Q96SW2, F37V); test: dTAG system degradation of FKBP12^F36V-USP39; assay type: cell-based
T2 construct: expressed in transfected cells
T2 sequence (P62942 whole entry F37V): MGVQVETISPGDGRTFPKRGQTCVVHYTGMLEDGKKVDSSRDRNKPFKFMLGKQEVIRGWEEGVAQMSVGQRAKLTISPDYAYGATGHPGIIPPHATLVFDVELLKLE
T2 sequence (Q96SW2 whole entry): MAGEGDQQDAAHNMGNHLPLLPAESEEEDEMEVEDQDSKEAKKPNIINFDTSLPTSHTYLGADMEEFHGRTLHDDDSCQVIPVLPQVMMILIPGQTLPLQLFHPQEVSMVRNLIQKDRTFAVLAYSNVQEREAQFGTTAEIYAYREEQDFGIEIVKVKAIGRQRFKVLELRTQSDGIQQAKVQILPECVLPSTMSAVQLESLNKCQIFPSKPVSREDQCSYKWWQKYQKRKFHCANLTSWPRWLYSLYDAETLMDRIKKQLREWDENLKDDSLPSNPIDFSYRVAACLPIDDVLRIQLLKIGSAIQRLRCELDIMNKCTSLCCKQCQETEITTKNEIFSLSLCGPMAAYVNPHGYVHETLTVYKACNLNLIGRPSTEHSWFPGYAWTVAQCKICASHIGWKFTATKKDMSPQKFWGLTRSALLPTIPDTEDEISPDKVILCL
Text: (§1) To investigate whether USP39 can be degraded through the ubiquitin‐proteasome system, we utilized the dTAG system by fusing FKBP12^F36V to the N‐terminus of USP39 (Figure SI1A).^[ [22] ^]

FKBP12^F36V-USP39 [5] = target: T3, FKBP12^F36V-USP39 (Homo sapiens, UniProt, F37V); test: dTAG system degradation of FKBP12^F36V-USP39; assay type: cell-based
T3 construct: expressed in transfected cells
T3 sequence (P62942 whole entry F37V): as the sequence (P62942 whole entry F37V) above
T3 sequence (Q96SW2 whole entry, further chain): as the sequence (Q96SW2 whole entry) above
Text: as §1

## CCOC(=O)c1csc(Nc2cccc(F)c2)n1 [USP39_B3]
USP39_T2 [1]
  Binding in competitive FP screening normalized to USP39_B1: significantly improved binding affinity
  IC50: 1180 nM

## CCOC(=O)c1csc(Nc2ccc(Cl)cc2)n1 [USP39_B1]
USP39_T2 [1]; at 50 µM, USP39_T2, tracer USP39_B1-FITC
  Inhibitory effect in competitive FP assay: weak inhibitory effect
USP39_T2 [1]
  IC50: > 50000 nM
[2]
  Kd of ternary complex formation (Alpha assay): no clear interaction was observed
USP39_T2 [3]
  Kd by ITC: did not yield a clear binding isotherm

## CCOC(=O)c1csc(Nc2ccccc2Cl)n1 [C4]
USP39_T2 [1]
  Binding in competitive FP screening normalized to USP39_B1: failed to show measurable binding

## CC[C@H](C(=O)N1CCCC[C@H]1C(=O)O[C@H](CCc1ccc(OC)c(OC)c1)c1ccccc1OCC(=O)NCCCCCCOc1cccc2c1C(=O)N(C1CCC(=O)NC1=O)C2=O)c1cc(OC)c(OC)c(OC)c1 (stereo partly drawn) [dTAG13]
FKBP12^F36V-USP39 [4]
  Time to degradation of FKBP12^F36V-USP39: ≤ 24 h
FKBP12^F36V-USP39 [5]
  Effect on endogenous USP39 levels: without affecting
